Test results: the NIST ThermoML archive (doi:10.1016/j.jct.2006.05.008)
Numbers after ± are expanded uncertainties.

Test: molar heat capacity at constant pressure; wn = mass fraction of the nth substance listed
Conditions: Small (less than 1 g) adiabatic calorimetry

CCCCn1cc[n+](C)c1.[Br-] [1-butyl-3-methylimidazolium bromide] + O
Crystal
Conditions	molar heat capacity at constant pressure [J/K/mol]
80.69 K, w2 = 0.00482	98.89 ± 0.59
80.93 K, w2 = 0.0051	98.9 ± 0.59
81.42 K, w2 = 0.0169	89.1 ± 0.55
83.2 K, w2 = 0.00482	100.65 ± 0.6
83.26 K, w2 = 0.0051	100.45 ± 0.6
83.41 K, w2 = 0.0169	90.19 ± 0.55
84.28 K, w2 = 0.0495	71.58 ± 0.46
85.41 K, w2 = 0.0169	91.5 ± 0.56
85.62 K, w2 = 0.0051	101.93 ± 0.61
85.71 K, w2 = 0.00482	102.22 ± 0.61
86.99 K, w2 = 0.0495	72.97 ± 0.46
87.41 K, w2 = 0.0169	92.8 ± 0.56
87.99 K, w2 = 0.0051	103.55 ± 0.62
88.22 K, w2 = 0.00482	103.95 ± 0.62
89.41 K, w2 = 0.0169	94.12 ± 0.57
89.64 K, w2 = 0.0495	74.29 ± 0.47
90.39 K, w2 = 0.0051	105.19 ± 0.62
90.73 K, w2 = 0.00482	105.63 ± 0.62
91.42 K, w2 = 0.0169	95.27 ± 0.58
92.3 K, w2 = 0.0495	75.61 ± 0.5
92.8 K, w2 = 0.0051	106.81 ± 0.63
93.24 K, w2 = 0.00482	107.29 ± 0.63
93.42 K, w2 = 0.0169	96.43 ± 0.59
94.99 K, w2 = 0.0495	76.9 ± 0.51
95.24 K, w2 = 0.0051	108.32 ± 0.63
95.42 K, w2 = 0.0169	97.66 ± 0.59
95.77 K, w2 = 0.00482	108.86 ± 0.64
97.43 K, w2 = 0.0169	98.68 ± 0.6
97.68 K, w2 = 0.0051	109.8 ± 0.64
97.69 K, w2 = 0.0495	78.16 ± 0.51
98.29 K, w2 = 0.00482	110.42 ± 0.64
99.44 K, w2 = 0.0169	99.85 ± 0.6
100.14 K, w2 = 0.0051	111.32 ± 0.64
100.41 K, w2 = 0.0495	79.41 ± 0.52
100.82 K, w2 = 0.00482	111.94 ± 0.65
101.45 K, w2 = 0.0169	101.05 ± 0.6
102.61 K, w2 = 0.0051	112.8 ± 0.65
103.15 K, w2 = 0.0495	80.66 ± 0.52
103.35 K, w2 = 0.00482	113.4 ± 0.65
103.46 K, w2 = 0.0169	102.17 ± 0.61
105.09 K, w2 = 0.0051	114.19 ± 0.66
105.47 K, w2 = 0.0169	103.12 ± 0.61
105.88 K, w2 = 0.00482	114.89 ± 0.66
105.9 K, w2 = 0.0495	81.82 ± 0.53
107.49 K, w2 = 0.0169	104.29 ± 0.62
107.59 K, w2 = 0.0051	115.72 ± 0.66
108.42 K, w2 = 0.00482	116.33 ± 0.67
108.67 K, w2 = 0.0495	83.08 ± 0.53
109.51 K, w2 = 0.0169	105.26 ± 0.62
110.1 K, w2 = 0.0051	117.14 ± 0.67
110.97 K, w2 = 0.00482	117.75 ± 0.67
111.45 K, w2 = 0.0495	84.27 ± 0.54
111.54 K, w2 = 0.0169	106.2 ± 0.62
112.61 K, w2 = 0.0051	118.54 ± 0.67
113.51 K, w2 = 0.00482	119.17 ± 0.68
113.57 K, w2 = 0.0169	107.35 ± 0.63
114.24 K, w2 = 0.0495	85.5 ± 0.54
115.14 K, w2 = 0.0051	119.96 ± 0.68
115.6 K, w2 = 0.0169	108.36 ± 0.63
116.06 K, w2 = 0.00482	120.61 ± 0.68
117.04 K, w2 = 0.0495	86.65 ± 0.55
117.63 K, w2 = 0.0169	109.39 ± 0.64
117.68 K, w2 = 0.0051	121.3 ± 0.69
118.63 K, w2 = 0.00482	121.93 ± 0.69
119.66 K, w2 = 0.0169	110.42 ± 0.64
119.84 K, w2 = 0.0495	87.83 ± 0.55
120.23 K, w2 = 0.0051	122.75 ± 0.69
121.18 K, w2 = 0.00482	123.35 ± 0.69
121.69 K, w2 = 0.0169	111.46 ± 0.65
122.66 K, w2 = 0.0495	89.01 ± 0.56
122.78 K, w2 = 0.0051	124.09 ± 0.7
123.73 K, w2 = 0.0169	112.39 ± 0.65
123.74 K, w2 = 0.00482	124.71 ± 0.7
125.34 K, w2 = 0.0051	125.46 ± 0.7
125.48 K, w2 = 0.0495	90.15 ± 0.56
125.77 K, w2 = 0.0169	113.34 ± 0.65
126.3 K, w2 = 0.00482	126.04 ± 0.7
127.81 K, w2 = 0.0169	114.42 ± 0.66
127.91 K, w2 = 0.0051	126.77 ± 0.71
128.32 K, w2 = 0.0495	91.34 ± 0.57
128.86 K, w2 = 0.00482	127.4 ± 0.71
129.85 K, w2 = 0.0169	115.33 ± 0.66
130.48 K, w2 = 0.0051	128.21 ± 0.71
131.16 K, w2 = 0.0495	92.52 ± 0.57
131.42 K, w2 = 0.00482	128.75 ± 0.72
131.9 K, w2 = 0.0169	116.36 ± 0.67
133.06 K, w2 = 0.0051	129.58 ± 0.72
133.95 K, w2 = 0.0169	117.4 ± 0.67
134 K, w2 = 0.00482	130.13 ± 0.72
134 K, w2 = 0.0495	93.65 ± 0.57
135.64 K, w2 = 0.0051	131 ± 0.72
136 K, w2 = 0.0169	118.35 ± 0.67
136.57 K, w2 = 0.00482	131.47 ± 0.73
136.85 K, w2 = 0.0495	94.81 ± 0.58
138.05 K, w2 = 0.0169	119.43 ± 0.68
139.14 K, w2 = 0.00482	132.79 ± 0.73
139.19 K, w2 = 0.0051	132.51 ± 0.73
139.7 K, w2 = 0.0495	95.99 ± 0.58
140.1 K, w2 = 0.0169	120.24 ± 0.68
141.87 K, w2 = 0.0051	133.88 ± 0.74
142.16 K, w2 = 0.0169	121.29 ± 0.69
142.55 K, w2 = 0.0495	97.17 ± 0.59
143.39 K, w2 = 0.00482	135 ± 0.74
144.23 K, w2 = 0.0169	122.36 ± 0.69
144.46 K, w2 = 0.0051	135.42 ± 0.74
145.41 K, w2 = 0.0495	98.38 ± 0.59
145.73 K, w2 = 0.00482	136.26 ± 0.74
146.29 K, w2 = 0.0169	123.43 ± 0.69
147.05 K, w2 = 0.0051	136.72 ± 0.75
148.27 K, w2 = 0.0495	99.58 ± 0.6
148.31 K, w2 = 0.00482	137.61 ± 0.75
148.35 K, w2 = 0.0169	124.38 ± 0.7
149.65 K, w2 = 0.0051	138.06 ± 0.75
150.42 K, w2 = 0.0169	125.3 ± 0.7
150.89 K, w2 = 0.00482	138.87 ± 0.75
151.13 K, w2 = 0.0495	100.83 ± 0.6
152.25 K, w2 = 0.0051	139.46 ± 0.76
152.48 K, w2 = 0.0169	126.38 ± 0.71

101.3 kPa, Glass, w2 = 0.00482
Conditions	molar heat capacity at constant pressure [J/K/mol]
82.79 K	103.56 ± 0.62
85.01 K	105.32 ± 0.63
87.51 K	107.36 ± 0.64
90.01 K	109.3 ± 0.64
92.52 K	111.32 ± 0.64
95.02 K	113.23 ± 0.65
99.79 K	116.7 ± 0.67
102.06 K	118.31 ± 0.67
104.58 K	120.07 ± 0.68
107.1 K	121.78 ± 0.69
109.63 K	123.51 ± 0.69
112.16 K	125.21 ± 0.7
114.69 K	126.86 ± 0.71
117.23 K	128.48 ± 0.71
119.76 K	130.09 ± 0.72
122.3 K	131.74 ± 0.73
124.85 K	133.4 ± 0.73
127.39 K	135.01 ± 0.74
129.94 K	136.58 ± 0.75
132.49 K	138.2 ± 0.75
135.04 K	139.78 ± 0.76
137.59 K	141.4 ± 0.77
140.15 K	142.95 ± 0.77
142.71 K	144.57 ± 0.78
145.27 K	146.31 ± 0.79
147.83 K	147.89 ± 0.79
150.39 K	149.45 ± 0.8
